Data published in paper PMC12669040, “Tumour-specific STING agonist synthesis via a two-component prodrug system” (Nature Chemistry, 2025).
Values joined by “and” are separate entries in the source; they are usually repeats but may differ in a detail not shown here. Equal values may be shown once.

Columns and labels:
[1] = Colorimetric alkylation rate constant assay with thiol N1; type: physicochemical; settings: for remaining [A]: N1 from calibration curve (N1 in uM); for remaining [A] / remaining [B]: in µM
[2] = Colorimetric alkylation rate constant assay with TNB^2− as non-specific thiol; type: physicochemical; design: second-order: unit not given here; settings: for remaining [B]: in µM
[3] = Time 2891 sec, [B]0 = 250, Replicates 1-3
[4] = Time 3071 sec, [B]0 = 250, Replicates 1-3
[5] = Time 3252 sec, [B]0 = 250, Replicates 1-3
[6] = Time 3433 sec, [B]0 = 250, Replicates 1-3
[7] = Time 3613 sec, [B]0 = 250, Replicates 1-3

Compound: COc1cc2sc(C(=O)CCC(=O)O)cc2cc1NC(=O)CCl [Compound E2]
- remaining [A] ([1]; Replicate 1, time 576 sec): 17.5091
- remaining [B] ([1]; Replicate 1, time 576 sec, [B]0 = 250): 163.389
- second-order ([1]; Replicate 1, time 576 sec, second-order plot value): 0.009306
- remaining [A] ([1]; Replicate 1, time 606 sec): 16.6256
- remaining [B] ([1]; Replicate 1, time 606 sec, [B]0 = 250): 162.506
- second-order ([1]; Replicate 1, time 606 sec, second-order plot value): 0.009623
- remaining [A] ([1]; Replicate 2, time 576 sec): 15.4999
- remaining [B] ([1]; Replicate 2, time 576 sec, [B]0=250): 162.358
- second-order ([1]; Replicate 2, time 576 sec, second-order plot value): 0.009966
- remaining [A] ([1]; Replicate 2, time 606 sec): 14.5929
- remaining [B] ([1]; Replicate 2, time 606 sec, [B]0=250): 161.451
- second-order ([1]; Replicate 2, time 606 sec, second-order plot value): 0.01034
- remaining [A] ([1]; Replicate 3, time 576 sec): 17.4849
- remaining [B] ([1]; Replicate 3, time 576 sec, [B]0=250): 162.938
- second-order ([1]; Replicate 3, time 576 sec, second-order plot value): 0.009352
- remaining [A] ([1]; Replicate 3, time 606 sec): 16.538
- remaining [B] ([1]; Replicate 3, time 606 sec, [B]0=250): 161.991
- second-order ([1]; Replicate 3, time 606 sec, second-order plot value): 0.009694
- remaining [B] ([1]; time 0 sec, [B]0 = 250, replicates 1-3): 219.942 and 218.28 and 218.112
- second-order ([1]; time 0 sec, replicates 1-3): 0.001589 and 0.00145 and 0.001561
- remaining [B] ([1]; time 30 sec, [B]0 = 250, replicates 1-3): 211.555 and 211.839 and 210.232
- second-order ([1]; time 30 sec, replicates 1-3): 0.002137 and 0.002004 and 0.001994
- remaining [B] ([1]; time 60 sec, [B]0 = 250, replicates 1-3): 204.386 and 206.139 and 202.834
- second-order ([1]; time 60 sec, replicates 1-3): 0.002738 and 0.002556 and 0.002427
- remaining [B] ([1]; time 91 sec, [B]0 = 250, replicates 1-3): 199.029 and 200.952 and 197.251
- second-order ([1]; time 91 sec, replicates 1-3): 0.003264 and 0.003029 and 0.002869
- remaining [B] ([1]; time 121 sec, [B]0 = 250, replicates 1-3): 194.402 and 196.363 and 192.97
- second-order ([1]; time 121 sec, replicates 1-3): 0.003719 and 0.003488 and 0.003307
- remaining [B] ([1]; time 151 sec, [B]0 = 250, replicates 1-3): 190.452 and 192.373 and 188.804
- second-order ([1]; time 151 sec, replicates 1-3): 0.004215 and 0.003925 and 0.003731
- remaining [B] ([1]; time 182 sec, [B]0 = 250, replicates 1-3): 186.908 and 188.84 and 185.431
- second-order ([1]; time 182 sec, replicates 1-3): 0.004663 and 0.00436 and 0.004145
- remaining [B] ([1]; time 212 sec, [B]0 = 250, replicates 1-3): 183.932 and 185.762 and 182.511
- second-order ([1]; time 212 sec, replicates 1-3): 0.005091 and 0.004762 and 0.004542
- remaining [B] ([1]; time 242 sec, [B]0 = 250, replicates 1-3): 181.254 and 182.541 and 179.734
- second-order ([1]; time 242 sec, replicates 1-3): 0.005539 and 0.005157 and 0.005
- remaining [B] ([1]; time 273 sec, [B]0 = 250, replicates 1-3): 178.711 and 180.147 and 177.239
- second-order ([1]; time 273 sec, replicates 1-3): 0.005981 and 0.005566 and 0.005372
- remaining [B] ([1]; time 303 sec, [B]0 = 250, replicates 1-3): 176.384 and 177.582 and 175.227
- second-order ([1]; time 303 sec, replicates 1-3): 0.00637 and 0.005975 and 0.005807
- remaining [B] ([1]; time 333 sec, [B]0 = 250, replicates 1-3): 174.382 and 175.53 and 173.129
- second-order ([1]; time 333 sec, replicates 1-3): 0.006811 and 0.006357 and 0.006186
- remaining [B] ([1]; time 364 sec, [B]0 = 250, replicates 1-3): 172.461 and 173.364 and 171.287
- second-order ([1]; time 364 sec, replicates 1-3): 0.007233 and 0.006753 and 0.006621
- remaining [B] ([1]; time 394 sec, [B]0 = 250, replicates 1-3): 170.756 and 171.54 and 169.7
- second-order ([1]; time 394 sec, replicates 1-3): 0.007627 and 0.007133 and 0.007019
- remaining [B] ([1]; time 424 sec, [B]0 = 250, replicates 1-3): 169.187 and 169.802 and 168.141
- second-order ([1]; time 424 sec, replicates 1-3): 0.008046 and 0.007509 and 0.00743
- remaining [B] ([1]; time 454 sec, [B]0 = 250, replicates 1-3): 167.699 and 168.519 and 166.865
- second-order ([1]; time 454 sec, replicates 1-3): 0.008415 and 0.007894 and 0.007756
- remaining [B] ([1]; time 485 sec, [B]0 = 250, replicates 1-3): 166.401 and 167.208 and 165.59
- second-order ([1]; time 485 sec, replicates 1-3): 0.008811 and 0.008254 and 0.008111
- remaining [B] ([1]; time 515 sec, [B]0 = 250, replicates 1-3): 165.237 and 165.84 and 164.371
- second-order ([1]; time 515 sec, replicates 1-3): 0.009219 and 0.008598 and 0.00851
- remaining [B] ([1]; time 545 sec, [B]0 = 250, replicates 1-3): 164.02 and 164.7 and 163.322
- second-order ([1]; time 545 sec, replicates 1-3): 0.009596 and 0.008984 and 0.008865
- remaining [B] ([2]; Replicate 1, 723 sec, [B]0 = 250): 243.335
- remaining [B] ([2]; Replicate 1, 903 sec, [B]0 = 250): 243.032
- remaining [B] ([2]; Replicate 1, 1084 sec, [B]0 = 250): 242.818
- remaining [B] ([2]; Replicate 1, 1265 sec, [B]0 = 250): 242.415
- remaining [B] ([2]; Replicate 1, 1445 sec, [B]0 = 250): 242.176
- remaining [B] ([2]; Replicate 1, 1626 sec, [B]0 = 250): 241.949
- remaining [B] ([2]; Replicate 1, 1806 sec, [B]0 = 250): 241.659
- remaining [B] ([2]; Replicate 1, 1988 sec, [B]0 = 250): 241.394
- remaining [B] ([2]; Replicate 1, 2168 sec, [B]0 = 250): 241.004
- remaining [B] ([2]; Replicate 1, 2349 sec, [B]0 = 250): 240.752
- remaining [B] ([2]; Replicate 1, 2530 sec, [B]0 = 250): 240.437
- remaining [B] ([2]; Replicate 1, 2710 sec, [B]0 = 250): 240.323
- remaining [B] ([2]; Replicate 2, 542 sec, [B]0=250): 243.63
- remaining [B] ([2]; Replicate 2, 723 sec, [B]0=250): 243.24
- remaining [B] ([2]; Replicate 2, 903 sec, [B]0=250): 242.962
- remaining [B] ([2]; Replicate 2, 1084 sec, [B]0=250): 242.698
- remaining [B] ([2]; Replicate 2, 1265 sec, [B]0=250): 242.446
- remaining [B] ([2]; Replicate 2, 1445 sec, [B]0=250): 242.169
- remaining [B] ([2]; Replicate 2, 1626 sec, [B]0=250): 241.929
- remaining [B] ([2]; Replicate 2, 1806 sec, [B]0=250): 241.639
- remaining [B] ([2]; Replicate 2, 1988 sec, [B]0=250): 241.4
- remaining [B] ([2]; Replicate 2, 2168 sec, [B]0=250): 241.098
- remaining [B] ([2]; Replicate 2, 2349 sec, [B]0=250): 240.858
- remaining [B] ([2]; Replicate 2, 2530 sec, [B]0=250): 240.593
- remaining [B] ([2]; Replicate 2, 2710 sec, [B]0=250): 240.316
- remaining [B] ([2]; Replicate 3, 723 sec, [B]0=250): 242.314
- remaining [B] ([2]; Replicate 3, 903 sec, [B]0=250): 241.999
- remaining [B] ([2]; Replicate 3, 1084 sec, [B]0=250): 241.659
- remaining [B] ([2]; Replicate 3, 1265 sec, [B]0=250): 241.344
- remaining [B] ([2]; Replicate 3, 1445 sec, [B]0=250): 241.041
- remaining [B] ([2]; Replicate 3, 1626 sec, [B]0=250): 240.789
- remaining [B] ([2]; Replicate 3, 1806 sec, [B]0=250): 240.5
- remaining [B] ([2]; Replicate 3, 1988 sec, [B]0=250): 240.273
- remaining [B] ([2]; Replicate 3, 2168 sec, [B]0=250): 240.008
- remaining [B] ([2]; Replicate 3, 2349 sec, [B]0=250): 239.706
- remaining [B] ([2]; Replicate 3, 2530 sec, [B]0=250): 239.492
- remaining [B] ([2]; Replicate 3, 2710 sec, [B]0=250): 239.164
- second-order [2, 3]: 0.0004296 and 0.0004811 and 0.0004316
- remaining [B] [2, 3]: 238.912 and 239.97 and 240.014
- second-order [2, 4]: 0.0004407 and 0.0004923 and 0.0004463
- remaining [B] [2, 4]: 238.673 and 239.655 and 239.774
- second-order [2, 5]: 0.0004524 and 0.0005067 and 0.0004586
- remaining [B] [2, 5]: 238.37 and 239.391 and 239.522
- second-order [2, 6]: 0.0004672 and 0.0005187 and 0.0004692
- remaining [B] [2, 6]: 238.118 and 239.164 and 239.207
- second-order [2, 7]: 0.0004772 and 0.0005343 and 0.0004876
- remaining [B] [2, 7]: 237.79
- second-order ([2]; Time 3794 sec, [B]0 = 250, Replicates 1-3): 0.0004927 and 0.000547 and 0.0004971
- second-order ([2]; Time 3974 sec, [B]0 = 250, Replicates 1-3): 0.0005034 and 0.0005579 and 0.0005103
- second-order ([2]; Time 4155 sec, [B]0 = 250, Replicates 1-3): 0.0005154 and 0.0005714 and 0.0005211
- second-order ([2]; Time 4336 sec, [B]0 = 250, Replicates 1-3): 0.0005298 and 0.0005836 and 0.0005397
- second-order ([2]; Time 4516 sec, [B]0 = 250, Replicates 1-3): 0.0005443 and 0.0005965 and 0.0005531
- second-order ([2]; Time 4697 sec, [B]0 = 250, Replicates 1-3): 0.0005528 and 0.0006095 and 0.0005659
- second-order ([2]; Time 4878 sec, [B]0 = 250, Replicates 1-3): 0.0005674 and 0.0006188 and 0.0005756
- second-order ([2]; Time 5058 sec, [B]0 = 250, Replicates 1-3): 0.0005809 and 0.0006349 and 0.000586
- second-order ([2]; Time 5239 sec, [B]0 = 250, Replicates 1-3): 0.0005944 and 0.0006468 and 0.0006002
- second-order ([2]; Time 5419 sec, [B]0 = 250, Replicates 1-3): 0.0006061 and 0.0006606 and 0.0006132
- second-order ([2]; Time 5600 sec, [B]0 = 250, Replicates 1-3): 0.0006185 and 0.0006707 and 0.0006275
- second-order ([2]; Time 5781 sec, [B]0 = 250, Replicates 1-3): 0.0006334 and 0.0006852 and 0.0006393
- second-order ([2]; Time 5961 sec, [B]0 = 250, Replicates 1-3): 0.0006459 and 0.0007024 and 0.0006549
